{
  "source": "patent US10098906B2",
  "about": "“Modulation of the physical interaction between platelets and the cell surface effecting cell proliferation” (Cell Receptor GmbH, priority 2013, dated 2018)",
  "key": {"HeLa cells, clone S3": {"tested_on": "HeLa cells, clone S3", "test": "Adhesion experiment (platelet binding to cell surface), microscopic quantification", "format": "cell-based, human", "conditions": "for Inhibition of platelet binding to growing cells: 0.1 ppm, FIG. 11, triplicate; for Inhibition of platelet binding to growing cells (in words): concentration not stated; for Reduction of platelet binding to the cells: 0.01 U/mL; for Inhibition of the binding of platelets to the HeLa cells: 0.1 U/mL, FIGS. 5 to 9", "experimental": "The process for evaluating the platelet binding of growing cells involves the isolation of platelets from peripheral blood with two subsequent washes and cell sedimentation. These washes include a partial activation of the platelets, which is relevant for their interaction with Heparin. The incubation with the cells under investigation takes place under conditions in which full activation of platelets is approached, which would lead to lumps forming in the platelets. This would hinder analysis. Therefore, a low concentration of EDTA is added to the assay. The quantification of platelets and the calculation of the surface portions of cells and background is carried out using appropriate software, namely by macros in the open source program ImageJ.\nVirus and mycoplasma free HeLa cells, clone S3, and human skin fibroblasts (NHDF) were purchased from Promo Cell, Heidelberg. Their human origin was confirmed by STR-Analysis. HeLa cells were maintained in Eagles MEM with 10% fetal calf serum. The NHDF were also maintained with 10% fetal calf serum in RPMI 1640. The passaging was performed by trypsin-EDTA treatment. The cell lines were maintained in either 25 ml bottles or in 3 cm plates.\nThe cells used for the experiment are cultured for 2 or 3 days in standard plates. At the start of the experiment about ⅓ of the plate surface should be covered with cells. The culture plates are subsequently washed with the buffer mixture described above and filled with further buffer mixture. For example, 30 mm culture dishes are filled with 2 ml 37° C. pre-warmed buffer mixture and 3×10^7 platelets obtained from the above-mentioned suspension.\nThe platelet-treated plates are incubated at 37° C. for 60 minutes. In this incubation, the pretreated platelets adhere to proliferating cells. However, cells of G0-phase bind little or none of the pre-treated platelets. This stage of incubation is when the substance to be tested is added to the cell culture buffer, in order to detect whether an effect on platelet binding is observed.\nAfter the one hour incubation, the plates are washed at room temperature with the above mentioned buffer mixture until no free water floating platelets (generally 2 to 4 washes) are present and immediately fixed with glutaraldehyde (1% v/v in H2O).\nThe evaluation is carried out photographically. For this purpose, the image analysis program ImageJ is applied. The number of cell-bound platelets in relation to the recorded cell number of cells is determined. Additionally, the number of cell-bound platelets in relation to the cell-covered area may be determined.\nImages are produced after the fixation in triplicate per plate. Phase contrast or brightfield 25×, 16× or 10× objectives are used. Image analysis is carried out according to SOP IJ. The open source program ImageJ may be used to for differential image subtraction and mask optimization. Subsequently, platelet number, cell number and proportional cell surface are determined by other IJ components."}, "[1]": {"test": "Anticoagulant activity compared with heparin", "conditions": "in vitro studies"}, "platelets": {"tested_on": "platelets", "test": "In vitro platelet aggregation compared with UFH", "format": "cell-based", "conditions": "in vitro studies"}, "HeLa cells": {"tested_on": "HeLa cells", "test": "Cell culture experiment for testing inhibition of cell proliferation (daily co-incubation with platelets, serum-free)", "format": "cell-based, human", "conditions": "inhibitor 1.0 or 0.1 μg/mL co-incubated with platelets 30 minutes daily, serum-free Eagle's MEM", "experimental": "In order to interrogate the effectiveness of PPS and DXS with respect to the inhibition of cell growth, the following experiment may be carried out.\nExperiment duration: 5 days; Culture medium: Eagle's MEM without serum addition.\nTest approach: PPS or DXS in 1.0, 0.1 μg/mL, and control (0 μg/mL final concentration).\nHeLa cells are cultured from stocks: 10^4 cells/25 cm^2 flask, cell numbers are counted in a Fuchs-Rosenthal chamber. Platelets are prepared as described above.\nPlatelets and HeLa cells, or other tumor cell lines, either with or without inhibitor, are co-incubated for 30 minutes once every day, for 1 to 4 days. After co-incubation the cells are washed as described above and then allowed to rest under standard culture conditions. Typically 90×10^6 platelets are incubated per well per day.\nOn day 5, cells are washed with HBSS, photographed, trypsinized and the cell number counted as described above."}, "[2]": {"conditions": "fraction of heparin activity; cited from earlier work"}},
  "note": "Values joined by “and” are separate entries in the source; they are usually repeats but may differ in a detail not shown here. Equal entries are not always repeated.",
  "data": [
    {"substance": "Dextran sulfate sodium salt from Leuconostoc spec [DXS]", "values": [
      {"measurement": "Inhibition of platelet binding to growing cells", "setting": "HeLa cells, clone S3", "value": "roughly 75%"},
      {"measurement": "Inhibition of platelet binding to growing cells (in words)", "setting": "HeLa cells, clone S3", "value": "reproducible inhibition"},
      {"measurement": "Anticoagulation in comparison to UFH", "setting": "[1]", "value": "reduced anticoagulation"},
      {"measurement": "Platelet aggregation in comparison to UFH", "setting": "platelets", "value": "reduced platelet aggregation"},
      {"measurement": "Increase of cell number (proliferation) on day 5", "setting": "HeLa cells", "value": "increases to a reduced extent"},
      {"measurement": "Anticoagulant activity relative to heparin", "setting": "[2]", "value": "much weaker"}
    ]},
    {"substance": "dalteparin", "values": [
      {"measurement": "Reduction of platelet binding to the cells", "setting": "HeLa cells, clone S3", "value": "significant reduction"},
      {"measurement": "Inhibition of the binding of platelets to the HeLa cells", "setting": "HeLa cells, clone S3", "value": "almost completely inhibited"}
    ]},
    {"substance": "danaparoid", "values": [
      {"measurement": "Difference in platelet binding between control and treatment", "setting": "HeLa cells, clone S3; 1.25 U/mL, about 5 times the upper limit of the therapeutic range", "value": "no significant difference"},
      {"measurement": "Cell-bound platelets per cell", "setting": "HeLa cells, clone S3; 1.25 U/mL, control 15.9+/-7.7 platelets/cell", "value": 13.2, "unit": "platelets/cell"},
      {"measurement": "Inhibition of platelet binding to growing cells (in words)", "setting": "HeLa cells, clone S3", "value": "significantly lower effect"},
      {"measurement": "Inhibition of platelet binding to growing cells (in words)", "setting": "HeLa cells, clone S3; listed as Danaparoid", "value": "to a lower extent"}
    ]},
    {"substance": "dermatan sulfate", "values": [
      {"measurement": "Inhibition of platelet binding to growing cells (in words)", "setting": "HeLa cells, clone S3", "value": "significantly less effective"}
    ]},
    {"substance": "enoxaparin", "values": [
      {"measurement": "Reduction of platelet binding to the cells", "setting": "HeLa cells, clone S3", "value": "significant reduction"},
      {"measurement": "Inhibition of the binding of platelets to the HeLa cells", "setting": "HeLa cells, clone S3", "value": "almost completely inhibited"}
    ]},
    {"substance": "heparan sulfate", "values": [
      {"measurement": "Inhibition of platelet binding to growing cells (in words)", "setting": "HeLa cells, clone S3", "value": "significantly less effective"}
    ]},
    {"substance": "pentosan polysulfate [PPS]", "values": [
      {"measurement": "Inhibition of platelet binding to growing cells", "setting": "HeLa cells, clone S3", "value": "roughly 75%"},
      {"measurement": "Inhibition of platelet binding to growing cells (in words)", "setting": "HeLa cells, clone S3", "value": "reproducible inhibition"},
      {"measurement": "Anticoagulation in comparison to UFH", "setting": "[1]", "value": "reduced anticoagulation"},
      {"measurement": "Platelet aggregation in comparison to UFH", "setting": "platelets", "value": "reduced platelet aggregation"},
      {"measurement": "Increase of cell number (proliferation) on day 5", "setting": "HeLa cells", "value": "increases to a reduced extent"},
      {"measurement": "Anticoagulant activity relative to heparin", "setting": "[2]", "value": "less than 1/10 and much weaker and 1/15"}
    ]},
    {"substance": "tinzaparin", "values": [
      {"measurement": "Reduction of platelet binding to the cells", "setting": "HeLa cells, clone S3", "value": "significant reduction"},
      {"measurement": "Inhibition of the binding of platelets to the HeLa cells", "setting": "HeLa cells, clone S3", "value": "almost completely inhibited"}
    ]}
  ]
}
